Data reported in patent publication US10807960B2, “Compounds, compositions, and methods for controlling biofilms” (KATHOLIEKE UNIVERSITEIT LEUVEN, priority 2015, dated 2020).
Where two headings read alike, the source gives them in different places.

Legend:
[1] = tested on: C. albicans SC5314 + S. epidermidis; test: mixed C. albicans/S. epidermidis biofilm assay, selective plating; format: cell-based, Candida albicans; Staphylococcus epidermidis; conditions: for activity at 25 µM: 25 μM (Table 5); for activity at 100 µM: 100 μM (Table 5)
Protocol: The concentrations 25 μM (0.0625% DMSO or ethanol) and 100 μM (0.25% DMSO or ethanol) were tested. After 24 h of incubation at 37° C., biofilms were washed with PBS and fresh medium with or without compounds was added. After further incubation for 48 h at 37° C., the biofilms were washed with PBS after which the cells were re-suspended in 100 μl of PBS by scraping off, sonication (1 min, 45 kHz, USC300-T; VWR, Radnor, Pa., USA) and vigorously pipetting up-and-down. Finally, the biofilm cells were diluted in PBS and plated on YPD agar plates containing 100 mg/L ampicillin and TSA plates containing 25 mg/L amphotericin B, to determine the number of fungal and bacterial CFUs after 2 days of incubation at 37° C., respectively. The percentage of C. albicans SC5314 and S. epidermidis cells was determined relative to the DMSO or ethanol control treatment.

osteoblasts (OB) [2] = test: metabolic activity, MTT staining; format: cell-based; conditions: 12.5 μM, 6 days treatment
Protocol: (§1) Cell viability of two human primary cell types, namely, osteoblasts (OB) and bone-marrow derived mesenchymal stem cells (MSC) was tested according to the ISO 10993-5 standard, as previously described. Briefly, cells were seeded in 96-well tissue culture test plates (TPP, Switzerland) at 5×10^3 cells/cm^2 in Advanced DMEM cell culture media supplemented with 10% serum, 1× GlutaMAX, 0.05 mg/mL Gentamycin, and were allowed to attach overnight. The next day, the cells were exposed to (i) cell culture medium and medium with the corresponding control (0.5% ethanol or DMSO) (negative controls), (ii) medium with 0.05% phenol (cytotoxic control), and (iii) medium with compounds (12.5 μM) and incubated for 2 h, 48 h and 6 days (8 repeats for each condition). At each time-point the numbers of viable and dead cells were determined directly by trypan blue staining, and indirectly by measuring the metabolic activity with MTT (3-(4,5-dimethylthiazol-2-yl)-2,5-diphenyltetrazolium bromide) staining.
(§2) The medium was removed from the wells and 100 μl of medium, supplemented with 10% serum and 0.5 mg/mL MTT was added to the cells. The cells were incubated overnight at 37° C. and 5% CO2. The next day the medium with MTT was removed and 100 μl acidic isopropanol was added. The cells were then centrifuged at 2300 g and 50 μl of the supernatant was transferred to a new 96-well plate. The absorbance was measured at 570 nm and the background was measured at 660 nm. Four wells per condition were examined.

[3] = tested on: bone-marrow derived mesenchymal stem cells (MSC); test: metabolic activity, MTT staining; format: cell-based; conditions: 12.5 μM, 6 days treatment
Protocol: as §1, §2

osteoblasts (OB) [4] = test: osteogenic differentiation, calcium and DNA assay; format: cell-based, human; conditions: 12.5 μM, calcium content normalized by DNA, versus solvent control
Protocol: (§3) The effect on osteogenic differentiation potential was assessed as previously described. Only the substances that allowed survival of the cells for more than 3 weeks, which is the time needed for mature osteogenic differentiation, were tested. Briefly, osteoblasts and bone-marrow derived mesenchymal stem cells were cultured in a positive solvent control (osteogenic medium with 0.5% DMSO or ethanol background), a negative control (medium without osteogenic supplements) and treated samples (osteogenic medium, 0.5% DMSO or ethanol background and 12.5 μM of test compound) with four repeats per condition. Mesenchymal stem cells and osteoblast cell cultures were harvested after 3 or 5 weeks, respectively, for the calcium and DNA assay.
(§4) Calcium deposition of osteoblasts and mesenchymal stem cells was measured with the Calcium CPC LiquiColor test (Stanbio Laboratory, Boerne, Tex.) as previously described. Briefly, cell cultures were extracted with 5% trichloroacetic acid (500 μl per sample), O-cresolphtalein complex was added, and the calcium content was determined spectrophotometrically at 550 nm. DNA content was determined as previously described. DNA values were used to normalize the calcium content. Four wells per condition were examined, and two samples from each well were taken for each assay.

[5] = tested on: bone-marrow derived mesenchymal stem cells (MSC); test: osteogenic differentiation, calcium and DNA assay; format: cell-based, human; conditions: 12.5 μM, calcium content normalized by DNA, versus solvent control
Protocol: as §3, §4

osteoblasts (OB) [6] = test: mammalian-cell viability assay, trypan blue staining; format: cell-based; conditions: 12.5 μM, 6 days exposure
Protocol: as §1
(§5) The medium was removed from the wells, and 1/3 trypan blue in Dulbecco's modified Eagle's medium (DMEM) was added to the cells, incubated for 3 min, after which trypan blue was removed and DMEM medium was added to the wells. In each of four wells, two microscopy fields were counted for viable (transparent) and dead (blue) cells.

[7] = tested on: bone-marrow derived mesenchymal stem cells (MSC); test: as above; format: cell-based; conditions: 12.5 μM, 6 days exposure
Protocol: as §1, §5

C. albicans SC5314 = test: inhibition of C. albicans biofilms, cell titer blue (CTB) quantification; format: cell-based, Candida albicans; conditions: monospecies biofilm; novel compounds: highest concentration tested 100 μM
Protocol: The potential of the compounds to prevent C. albicans SC5314 biofilm formation was assessed using the cell titer blue (CTB) quantification method (26). For the CTB method, an overnight culture of C. albicans SC5314 was washed with PBS and a cell suspension of 10^6 cells/ml (OD600=0.1) was prepared in RPMI 1640 medium (pH 7.0). […] After 16 h of static incubation at 37° C., biofilms were washed and quantified with CTB as described previously.

[8] = C. albicans in mixed biofilm with S. epidermidis, read-out: CFUs % survival C.a.

| SMILES | activity at 25 µM [1, 8] [%] | activity at 100 µM [1, 8] [%] | activity at 25 µM ([1]; S. epidermidis in mixed biofilm with C. albicans, read-out: CFUs % survival S.c.) [%] | activity at 100 µM ([1]; S. epidermidis in mixed biofilm with C. albicans, read-out: CFUs % survival Se.) [%] | metabolic activity compared to the solvent control (in words) (osteoblasts (OB) [2]) | metabolic activity compared to the solvent control (in words) [3] | calcium deposition (in words) (osteoblasts (OB) [4]) | calcium deposition (in words) [5] | proliferation (in words) (osteoblasts (OB) [6]) | proliferation (in words) [7] | effect on the C. albicans/S. epidermidis mixture (in words) [1] | anti-biofilm activity (in words) (C. albicans SC5314) |
| --- | --- | --- | --- | --- | --- | --- | --- | --- | --- | --- | --- | --- |
| CCCCCCCCn1c(-c2ccc(Br)cc2)cnc1NC1CCCC1 [Compound 8g, 5-(4-bromophenyl)-N-cyclopentyl-1-octyl-1H-imidazol-2-amine] | 3.3 | 5.9 | 0 | 0 | increased | increased | induced the calcium deposition | induced the calcium deposition | increase in proliferation | slightly reduced |  |  |
| CCCCCCCCn1c(-c2ccc(Cl)c(Cl)c2)cnc1NCC(C)C [Compound 8d, 5-(3,4-dichlorophenyl)-N-isobutyl-1-octyl-1H-imidazol-2-amine] | 2.5 | 1.4 |  |  | increased | increased | none of the compounds negatively affected the calcium deposition | none of the compounds negatively affected the calcium deposition | increase in proliferation | increase in proliferation | only reduced C. albicans | not active |
